According to the NIST ThermoML archive (doi:10.1016/j.jct.2016.01.021):

Experiment: xn = mol fraction of the nth substance listed
Conditions: 100 kPa, Liquid; for viscosity: Capillary tube (Ostwald / Ubbelohde) method; for mass density: Vibrating tube method

CCCCCCCCCCCC(=O)OCC [ethyl dodecanoate] + CCCCCCCCCCCCCCCC
Conditions	mass density [kg/m3]	viscosity [mPa·s]
298.15 K, x2 = 0	858.19	3.015
298.15 K, x2 = 0.1	848.2	2.977
298.15 K, x2 = 0.2	838.49	2.954
298.15 K, x2 = 0.3	829.03	2.935
298.15 K, x2 = 0.4	819.83	2.925
298.15 K, x2 = 0.5	810.88	2.923
298.15 K, x2 = 0.6	802.18	2.933
298.15 K, x2 = 0.7	793.76	2.952
298.15 K, x2 = 0.7999	785.59	2.98
298.15 K, x2 = 0.9	777.65	3.024
303.15 K, x2 = 0	854.3	2.704
303.15 K, x2 = 0.1	844.34	2.673
303.15 K, x2 = 0.2	834.69	2.65
303.15 K, x2 = 0.3	825.27	2.632
303.15 K, x2 = 0.4	816.11	2.624
303.15 K, x2 = 0.5	807.21	2.623
303.15 K, x2 = 0.6	798.55	2.629
303.15 K, x2 = 0.7	790.18	2.645
303.15 K, x2 = 0.7999	782.04	2.668
303.15 K, x2 = 0.9	774.14	2.706
308.15 K, x2 = 0	850.4	2.439
308.15 K, x2 = 0.1	840.49	2.412
308.15 K, x2 = 0.2	830.88	2.392
308.15 K, x2 = 0.3	821.51	2.377
308.15 K, x2 = 0.4	812.4	2.368
308.15 K, x2 = 0.5	803.54	2.367
308.15 K, x2 = 0.6	794.93	2.372
308.15 K, x2 = 0.7	786.59	2.384
308.15 K, x2 = 0.7999	778.5	2.403
308.15 K, x2 = 0.9	770.64	2.433
313.15 K, x2 = 0	846.5	2.213
313.15 K, x2 = 0.1	836.63	2.188
313.15 K, x2 = 0.2	827.07	2.169
313.15 K, x2 = 0.3	817.75	2.155
313.15 K, x2 = 0.4	808.68	2.149
313.15 K, x2 = 0.5	799.87	2.146
313.15 K, x2 = 0.6	791.3	2.15
313.15 K, x2 = 0.7	783.01	2.16
313.15 K, x2 = 0.7999	774.96	2.179
313.15 K, x2 = 0.9	767.14	2.203
318.15 K, x2 = 0	842.6	2.016
318.15 K, x2 = 0.1	832.77	1.996
318.15 K, x2 = 0.2	823.26	1.978
318.15 K, x2 = 0.3	813.99	1.966
318.15 K, x2 = 0.4	804.97	1.959
318.15 K, x2 = 0.5	796.19	1.957
318.15 K, x2 = 0.6	787.68	1.959
318.15 K, x2 = 0.7	779.43	1.967
318.15 K, x2 = 0.7999	771.42	1.981
318.15 K, x2 = 0.9	763.64	2.003
323.15 K, x2 = 0	838.7	1.846
323.15 K, x2 = 0.1	828.91	1.832
323.15 K, x2 = 0.2	819.45	1.813
323.15 K, x2 = 0.3	810.22	1.801
323.15 K, x2 = 0.4	801.25	1.795
323.15 K, x2 = 0.5	792.52	1.793
323.15 K, x2 = 0.6	784.05	1.795
323.15 K, x2 = 0.7	775.84	1.8
323.15 K, x2 = 0.7999	767.88	1.813
323.15 K, x2 = 0.9	760.14	1.833

CCCCCCCC(=O)OCC [ethyl octanoate] + CCCCCCCCCCCCCCCC
Conditions	mass density [kg/m3]	viscosity [mPa·s]
298.15 K, x2 = 0	862.64	1.428
298.15 K, x2 = 0.1	848.72	1.539
298.15 K, x2 = 0.2	836.2	1.651
298.15 K, x2 = 0.3	824.94	1.776
298.15 K, x2 = 0.4	814.77	1.916
298.15 K, x2 = 0.4999	805.52	2.065
298.15 K, x2 = 0.6	797.09	2.229
298.15 K, x2 = 0.7	789.38	2.408
298.15 K, x2 = 0.8	782.33	2.608
298.15 K, x2 = 0.9	775.88	2.84
303.15 K, x2 = 0	858.34	1.313
303.15 K, x2 = 0.1	844.55	1.407
303.15 K, x2 = 0.2	832.14	1.513
303.15 K, x2 = 0.3	820.97	1.623
303.15 K, x2 = 0.4	810.9	1.744
303.15 K, x2 = 0.4999	801.74	1.875
303.15 K, x2 = 0.6	793.39	2.019
303.15 K, x2 = 0.7	785.75	2.175
303.15 K, x2 = 0.8	778.76	2.348
303.15 K, x2 = 0.9	772.36	2.543
308.15 K, x2 = 0	854.04	1.211
308.15 K, x2 = 0.1	840.37	1.296
308.15 K, x2 = 0.2	828.07	1.387
308.15 K, x2 = 0.3	817.01	1.49
308.15 K, x2 = 0.4	807.03	1.596
308.15 K, x2 = 0.4999	797.95	1.712
308.15 K, x2 = 0.6	789.68	1.837
308.15 K, x2 = 0.7	782.11	1.974
308.15 K, x2 = 0.8	775.18	2.124
308.15 K, x2 = 0.9	768.84	2.291
313.15 K, x2 = 0	849.72	1.121
313.15 K, x2 = 0.1	836.18	1.197
313.15 K, x2 = 0.2	824	1.279
313.15 K, x2 = 0.3	813.04	1.371
313.15 K, x2 = 0.4	803.16	1.467
313.15 K, x2 = 0.4999	794.16	1.57
313.15 K, x2 = 0.6	785.97	1.68
313.15 K, x2 = 0.7	778.47	1.801
313.15 K, x2 = 0.8	771.61	1.933
313.15 K, x2 = 0.9	765.33	2.083
318.15 K, x2 = 0	845.39	1.042
318.15 K, x2 = 0.1	831.98	1.11
318.15 K, x2 = 0.2	819.92	1.185
318.15 K, x2 = 0.3	809.06	1.267
318.15 K, x2 = 0.4	799.27	1.351
318.15 K, x2 = 0.4999	790.37	1.444
318.15 K, x2 = 0.6	782.25	1.543
318.15 K, x2 = 0.7	774.83	1.65
318.15 K, x2 = 0.8	768.04	1.766
318.15 K, x2 = 0.9	761.81	1.897
323.15 K, x2 = 0	841.06	0.971
323.15 K, x2 = 0.1	827.77	1.034
323.15 K, x2 = 0.2	815.83	1.101
323.15 K, x2 = 0.3	805.08	1.172
323.15 K, x2 = 0.4	795.39	1.251
323.15 K, x2 = 0.4999	786.56	1.334
323.15 K, x2 = 0.6	778.53	1.422
323.15 K, x2 = 0.7	771.18	1.517
323.15 K, x2 = 0.8	764.46	1.62
323.15 K, x2 = 0.9	758.3	1.736
